How the values were obtained:
[1] = biological target: T1, hA1AR (Homo sapiens, UniProt P30542); assay: Competition binding, [3H]DPCPX, hA1 CHO cell membranes; conditions: displacement of [3H]DPCPX, hA1 CHO cells; mean ± SEM of four assays
T1 construct: host or cells: CHO cells
T1 sequence (P30542 1-326): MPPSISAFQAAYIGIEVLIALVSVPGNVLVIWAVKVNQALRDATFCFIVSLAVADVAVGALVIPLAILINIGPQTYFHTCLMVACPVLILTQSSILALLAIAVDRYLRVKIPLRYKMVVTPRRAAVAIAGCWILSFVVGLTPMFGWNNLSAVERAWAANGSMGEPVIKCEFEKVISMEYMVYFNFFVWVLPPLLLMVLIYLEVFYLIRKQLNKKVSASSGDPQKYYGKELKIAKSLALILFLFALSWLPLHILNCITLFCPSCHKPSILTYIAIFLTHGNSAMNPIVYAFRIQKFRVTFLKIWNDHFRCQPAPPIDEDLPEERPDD
Experimental: (§1) CHO cells transfected with hA1, hA2A, hA2B and hA3 ARs (Perkin Elmer, Boston, MA, USA) were grown adherently and maintained in Dulbecco’s modified Eagle’s medium with nutrient mixture F12, containing 10% fetal calf serum, penicillin (100 U/mL), streptomycin (100 μg/mL), L-glutamine (2 mM) and geneticine (G418; 0.2 mg/mL), at 37 °C, in 5% CO2/95% air, until their use in cAMP assays. For membrane preparation, the culture medium was removed, and the cells were washed with phosphate-buffered saline and scraped off T75 flasks in ice-cold hypotonic buffer (5 mM Tris HCl, 1 mM EDTA, pH 7.4). The cell suspension was homogenized with a Polytron, centrifuged for 30 min at 40,000× g, at 4 °C, and the resulting membrane pellet was used for competition binding experiments.
(§2) All synthesized compounds were tested for their affinity to hA1, hA2A and hA3 ARs. Competition experiments to hA1AR were carried out by incubating 1 nM [^3H]-8-cyclopentyl-1,3-dipropylxanthine ([^3H]-DPCPX) with membrane suspension (50 μg of protein/100 μL) and different concentrations of the examined compounds at 25 °C for 90 min in 50 mM Tris HCl, pH 7.4. Non-specific binding was defined as binding in the presence of 1 μM DPCPX and was always <10% of the total binding. Inhibition experiments to hA2A ARs were performed by incubating the radioligand [^3H]-4-(-2-[7-amino-2-{2-furyl}{1,2,4}triazolo{2,3-a} {1,3,5}triazin-5-yl-amino]ethyl)phenol ([^3H]-ZM241385) (1 nM) with the membrane suspension (50 μg of protein/100 μL) and different concentrations of the examined compounds for 60 min, at 4 °C, in 50 mM Tris HCl (pH 7.4), 10 mM MgCl2. Non-specific binding was determined in the presence of ZM241385 (1 μM) and was about 20% of the total binding. Competition binding experiments to A3ARs were carried out by incubating the membrane suspension (50 μg of protein/100 μL) with 0.5 nM [^125I]-N6-(4-aminobenzyl)-N-methylcarboxamidoadenosine ([^125I]-ABMECA) in the presence of different concentrations of the examined compounds for an incubation time of 120 min, at 4 °C, in 50 mM Tris HCl (pH 7.4), 10 mM MgCl2, 1 mM EDTA. Non-specific binding was defined as binding in the presence of 1 μM ABMECA and was always <10% of the total binding. Bound and free radioactivity were separated by filtering the assay mixture through Whatman GF/B glass-fiber filters, using a Brandel cell harvester (Brandel Instruments, Unterföhring, Germany). The filter bound radioactivity was counted by Packard Tri Carb 2810 TR scintillation counter (Perkin Elmer).
(§3) The protein concentration was determined according to a Bio-Rad method, with bovine albumin as a standard reference. Inhibitory binding constant (Ki) values were calculated from those of IC50 according to the Cheng–Prusoff equation, Ki = IC50/(1 + [C*]/KD*), where [C*] is the concentration of the radioligand, and KD* its dissociation constant. Ki and IC50 values were calculated by non-linear regression analysis, using the equation for a sigmoid concentration-response curve (Graph-PAD Prism, San Diego, CA, USA).

[2] = biological target: T2, hA3AR (Homo sapiens, UniProt P0DMS8); assay: Competition binding, [125I]AB-MECA, hA3 CHO cell membranes; conditions: displacement of [125I]AB-MECA, hA3 CHO cells; mean ± SEM of four assays
T2 construct: host or cells: CHO cells
T2 sequence (P0DMS8 1-318): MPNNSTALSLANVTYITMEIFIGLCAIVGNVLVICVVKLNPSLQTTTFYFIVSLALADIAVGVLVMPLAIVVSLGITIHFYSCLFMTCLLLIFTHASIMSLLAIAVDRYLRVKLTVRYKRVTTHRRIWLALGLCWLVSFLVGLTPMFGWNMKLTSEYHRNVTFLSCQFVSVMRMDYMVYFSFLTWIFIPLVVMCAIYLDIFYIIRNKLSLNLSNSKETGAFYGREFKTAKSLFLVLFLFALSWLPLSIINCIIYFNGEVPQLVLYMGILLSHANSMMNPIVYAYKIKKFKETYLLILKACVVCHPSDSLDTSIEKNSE
Experimental: as §1, §2, §3

Ki [1] | Ki [2] | melting point | Structure (SMILES)
9.63 ± 1.61 nM | 52 ± 5 nM |  | N#Cc1c(N)nc(SCc2ncc[nH]2)c(C#N)c1-c1ccco1 [Compound 1, 2-Amino-4-(furan-2-yl)-6-[(1H-imidazol-2-ylmethyl)sulfanyl]pyridine-3,5-dicarbonitrile]
2.5 ± 0.2 nM | 25 ± 2 nM | 246 to 248 °C | N#Cc1c(N)nc(SCc2ncc[nH]2)c(C#N)c1-c1cccs1 [Compound 5, 2-Amino-6-[(1H-imidazol-2-ylmethyl)sulfanyl]-4-(thiophen-2-yl)pyridine-3,5-dicarbonitrile]
